In patent US7169942B2, “Cannabinoid derivatives, methods of making, and use thereof” (priority 2003, dated 2007):
Read-outs that look alike come from different tables or passages of the source.

What was measured:
[1] = target: T1, human CB1 receptor (Homo sapiens, UniProt P21554); experiment: biochemical; assay type: binding
T1 construct: purchased Perkin-Elmer Life Sciences, Inc. Lot #1929; host or cells: HEK293 (HEK293 EBNA according to b236 for compounds 33-36)

[2] = target: T2, human CB2 receptor (Homo sapiens, UniProt P34972); experiment: CB2 receptor binding assay, displacement of [3H]CP 55,940
T2 construct: purchased Perkin-Elmer Life Sciences, Inc. Lot #1930

[3] = tested on: rat hemorrhagic shock model; experiment: Rat hemorrhagic shock model; conditions: FIG. 22
[4] = target: CB1 (Rattus norvegicus, UniProt P20272); conditions: literature value, highly potent CB1 analogs; read-out: Ki of reference cannabinoid; cited from earlier work
[5] = tested on: C6 glioma cells; experiment: Cytotoxicity on C6 glioma cells (MTS, CellTiter 96); conditions: concentrations of 8 μM
[6] = Table 3, human receptor in HEK293 EBNA cell membranes, three experiments in duplicate, SEM in parentheses
[7] = Table 1, affinity ratio of Ki values
[8] = Table 1, membranes of HEK293 cells with human CB1, SEM in parentheses, n≧2 in triplicate, read-out: CB1 Ki
[9] = Table 3, human receptor in HEK293 EBNA cell membranes, three experiments in duplicate, SEM in parentheses, read-out: CB1 Ki
[10] = Table 3, human receptor in HEK293 EBNA cell membranes, three experiments in duplicate, SEM in parentheses, read-out: CB2 Ki
[11] = Table 8, SEM in parentheses, n≧2 in triplicate, read-out: CB1 Ki
[12] = Table 8, SEM in parentheses, n≧2 in triplicate

T1 sequence (P21554 whole entry): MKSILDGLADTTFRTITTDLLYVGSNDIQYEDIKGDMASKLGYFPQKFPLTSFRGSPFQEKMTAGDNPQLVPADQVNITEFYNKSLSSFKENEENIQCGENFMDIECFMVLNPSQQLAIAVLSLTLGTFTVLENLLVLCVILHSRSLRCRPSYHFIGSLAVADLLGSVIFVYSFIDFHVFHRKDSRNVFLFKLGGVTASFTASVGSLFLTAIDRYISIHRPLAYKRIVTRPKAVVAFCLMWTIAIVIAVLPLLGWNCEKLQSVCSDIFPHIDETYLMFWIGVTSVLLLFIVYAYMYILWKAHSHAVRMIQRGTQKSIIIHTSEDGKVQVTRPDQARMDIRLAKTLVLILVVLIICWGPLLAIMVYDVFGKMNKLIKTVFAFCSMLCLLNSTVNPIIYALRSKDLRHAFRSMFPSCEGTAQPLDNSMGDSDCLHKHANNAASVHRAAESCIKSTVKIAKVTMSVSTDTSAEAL
T2 sequence (P34972 whole entry): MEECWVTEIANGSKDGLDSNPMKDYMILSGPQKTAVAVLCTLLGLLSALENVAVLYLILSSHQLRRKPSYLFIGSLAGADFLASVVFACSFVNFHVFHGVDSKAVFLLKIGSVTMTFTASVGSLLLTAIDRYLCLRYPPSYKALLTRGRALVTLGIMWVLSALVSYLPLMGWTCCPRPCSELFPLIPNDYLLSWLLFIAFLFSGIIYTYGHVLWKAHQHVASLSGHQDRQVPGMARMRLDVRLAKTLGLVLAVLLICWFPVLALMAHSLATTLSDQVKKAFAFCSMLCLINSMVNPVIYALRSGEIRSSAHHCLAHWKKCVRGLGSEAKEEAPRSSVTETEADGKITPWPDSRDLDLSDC
Sequence of CB1 (P20272 whole entry): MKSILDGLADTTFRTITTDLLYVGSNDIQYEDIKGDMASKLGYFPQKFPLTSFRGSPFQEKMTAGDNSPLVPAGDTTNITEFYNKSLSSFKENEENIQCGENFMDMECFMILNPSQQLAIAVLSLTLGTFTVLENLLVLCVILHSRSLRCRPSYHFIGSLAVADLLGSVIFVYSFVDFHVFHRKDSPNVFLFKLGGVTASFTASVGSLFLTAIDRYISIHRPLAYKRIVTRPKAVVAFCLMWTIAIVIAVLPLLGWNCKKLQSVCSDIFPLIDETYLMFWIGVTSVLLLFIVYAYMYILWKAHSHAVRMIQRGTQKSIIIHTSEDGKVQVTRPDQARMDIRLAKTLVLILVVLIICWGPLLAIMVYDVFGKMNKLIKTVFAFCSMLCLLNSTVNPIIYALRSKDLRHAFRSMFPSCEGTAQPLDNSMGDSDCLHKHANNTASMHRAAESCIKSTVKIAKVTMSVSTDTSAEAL

For `CCCCC(=O)c1cc(OC)cc(OC)c1` [Compound 5, 1-(3,5-Dimethoxy-phenyl)-pentan-1-one], the “CB1 Ki” value [1, 6] was “significantly reduced binding affinities” and the “CB2 Ki” value [2, 6] was “significantly reduced binding affinities”.

For `CCCCC1(c2cc(O)c3c(c2)OC(C)(C)C2CC=C(C)CC32)SCCS1` (centres unmarked) [Compound 23, 3-(2-Butyl-[1,3]dithiolan-2-yl)-6,6,9-trimethyl-6a,7,10,10a-tetrahydro-6H-benzo[c]chromen-1-ol], the “fold increase in binding to the CB1 receptor relative to Δ8-THC” value [1] was 33 fold, the “fold increased affinity for the CB1 receptor relative to the carbon equivalent 24” value [1] was 4.7 fold and the “Ratio CB1/CB2” value [1, 7] was 1.47. For the same compound, the “CB1 Ki” value ([1]; Table 1, membranes of HEK293 cells with human CB1, SEM in parentheses, n≧2 in triplicate) was “sub-nanomolar”, the Ki [1, 8] was 0.85 nM and the Ki [2] was 0.58 nM. For the same compound, the “fold increase in binding to the CB2 receptor relative to Δ8-THC” value [2] was 47 fold, the “fold increased affinity for the CB2 receptor relative to the carbon equivalent 24” value [2] was 11 fold and the “CB2 Ki” value ([2]; Table 1, membranes of CHO-K1 cells with human CB2, SEM in parentheses, n≧2 in triplicate) was “sub-nanomolar”.

With `CC1=CCC2C(C1)c1c(O)cc(C3(C4CCCC4)SCCS3)cc1OC2(C)C` (centres unmarked) [Compound 24, 3-(2-Cyclopentyl-[1,3]dithiolan-2-yl)-6,6,9-trimethyl-6a,7,10,10a-tetrahydro-6H-benzo[c]chromen-1-ol] the “Ratio CB1/CB2” value [1, 7] was 3.46, the Ki [1, 8] was 9.49 nM and the Ki [2] was 2.74 nM. For the same compound, the “fold decrease in affinity at the CB2 receptor (dithiolane ring)” value [2] was 7 fold.

With `CC1=CCC2C(C1)c1c(O)cc(C3(C4CCCCC4)SCCS3)cc1OC2(C)C` (centres unmarked) [Compound 25, 3-(2-Cyclohexyl-[1,3]dithiolan-2-yl)-6,6,9-trimethyl-6a,7,10,10a-tetrahydro-6H-benzo[c]chromen-1-ol] the “Ratio CB1/CB2” value [1] was 1.77, the Ki [1, 8] was 1.86 nM and the Ki [2] was 1.05 nM. For the same compound, the “change in mean blood pressure versus time relative to positive control Δ8-THC and NS-398” value ([3]; 12 mg/kg in combination with NS-398 2 mg/kg) was “improved behavior relative to the positive control”.

In the case of `CC1=CCC2C(C1)c1c(O)cc(C3(C4CCCCCC4)SCCS3)cc1OC2(C)C` (centres unmarked) [Compound 26, 3-(2-Cycloheptyl-[1,3]dithiolan-2-yl)-6,6,9-trimethyl-6a,7,10,10a-tetrahydro-6H-benzo[c] chromen-1-ol], the “Ratio CB1/CB2” value [1, 7] is reported as 0.27, the Ki [1, 8] is reported as 1.76 nM and the Ki [2] is reported as 6.62 nM. The “fold decrease in affinity at the CB2 receptor (dithiolane ring)” value [2] was 33 fold.

With `CC1=CCC2C(C1)c1c(O)cc(C(C)(C)C3CCCC3)cc1OC2(C)C` (centres unmarked) [Compound 27, 3-(1-Cyclopentyl-1-methyl-ethyl)-6,6,9-trimethyl-6a,7,10,1a-tetrahydro-6H-benzo[c]chromen-1-ol] the “Ratio CB1/CB2” value [1, 7] was 0.84, the Ki ([1]; read-out: CB1 Ki) was 0.34 nM and the Ki ([2]; Table 1, membranes of CHO-K1 cells with human CB2, SEM in parentheses, n≧2 in triplicate, read-out: CB2 Ki) was 0.39 nM.

With `CC1=CCC2C(C1)c1c(O)cc(C(C)(C)C3CCCCC3)cc1OC2(C)C` (centres unmarked) [Compound 28, 3-(1-Cyclohexyl-1-methyl-ethyl)-6,6,9-trimethyl-6a,7,10,10a-tetrahydro-6H-benzo[c]chromen-1-ol] the “Ratio CB1/CB2” value [1, 7] was 0.87, the Ki [1, 8] was 0.57 nM and the “Ratio CB1/CB2” value ([1]; Table 3, ratio of Ki values) was 0.87. The “Ratio CB1/CB2” value ([1]; Table 3, ratio of Ki values, listed as 32) was “binds both the subtypes with almost equal affinity”, the Ki [2] was 0.65 nM and the “rapid increase in ΔMAP, level reached relative to basal MAP” value ([3]; 12 mg/kg with 2 mg/kg NS-398 (COX-2 inhibitor)) was no more than 85%.

`CC1=CCC2C(C1)c1c(O)cc(C(C)(C)C3CCCCCC3)cc1OC2(C)C` (centres unmarked) [Compound 29, 3-(1-Cycloheptyl-1-methyl-ethyl)-6,6,9-trimethyl-6a,7,10,10a-tetrahydro-6H-benzo[c]chromen-1-ol] showed a Ki [1, 8] of 0.94 nM and a Ki [2] of 0.22 nM.

For `CC1=CCC2C(C1)c1c(O)cc(C3(c4ccccc4)SCCS3)cc1OC2(C)C` (centres unmarked) [Compound 34, dithiolanyl-phenyl-Δ^8-THC], the “fold decrease in affinity relative to the 1′-cyclohexyl congener” value [1] was 10 fold, the Ki [1, 9] was 17.3 nM and the Ki [2, 10] was 17.6 nM.

In the case of `CC1=CCC2C(C1)c1c(O)cc(Cc3ccccc3)cc1OC2(C)C` (centres unmarked) [Compound 35, methylene-phenyl-Δ^8-THC], the Ki [1, 9] is reported as 67.6 nM, the “Ratio CB1/CB2” value ([1]; Table 3, ratio of Ki values) is reported as 0.78 and the Ki [2, 10] is reported as 85.9 nM.

With `CC1=CC[C@@H]2[C@@H](C1)c1c(O)cc(C(=O)c3ccccc3)cc1OC2(C)C` [Compound 36, methanone-phenyl-Δ^8-THC] the “Ratio CB1/CB2” value [1] was 12.6, the “fold decrease in binding affinity for the CB1 receptor compared to Δ8-THC” value [1] was roughly 10 fold and the Ki [1, 9] was 297 nM. For the same compound, the Ki [2, 10] was 23.6 nM.

In the case of `CC1=CCC2C(C1)c1c(O)cc(C(C)(C)c3ccc(C)cc3)cc1OC2(C)C` (centres unmarked) [Compound 50, 6,6,9-Trimethyl-3-(1-methyl-1-p-tolyl-ethyl)-6a,7,10,10a-tetrahydro-6H-benzo[c]chromen-1-ol], the Ki [1, 11] is reported as 2.13 nM, the “Ratio CB1/CB2” value ([1]; Table 8, ratio of Ki values) is reported as 3.56 and the Ki [2] is reported as 0.88 nM. The “CB2 Ki” value [2, 12] was “sub-nanomolar”.

For `CC1=CCC2C(C1)c1c(O)cc(C(C)(C)c3cccc(C)c3)cc1OC2(C)C` (centres unmarked) [Compound 51, 6,6,9-Trimethyl-3-(1-methyl-1-m-tolyl-ethyl)-6a,7,10,10a-tetrahydro-6H-benzo[c]chromen-1-ol], the Ki [1, 11] was 2.53 nM, the “Ratio CB1/CB2” value ([1]; Table 8, ratio of Ki values) was 2.24 and the Ki [2] was 1.13 nM.

For `CC1=CCC2C(C1)c1c(O)cc(C(C)(C)c3ccc(Cl)cc3)cc1OC2(C)C` (centres unmarked) [Compound 52, 3-[1-(4-Chloro-phenyl)-1-methyl-ethyl]-6,6,9-trimethyl-6a,7,10,10a-tetrahydro-6H-benzo[c]chromen-1-ol], the Ki [1, 11] was 76.1 nM and the Ki [2] was 12.4 nM.

With `CC1=CCC2C(C1)c1c(O)cc(C(C)(C)c3cccc(Cl)c3)cc1OC2(C)C` (centres unmarked) [Compound 53, 3-[1-(3-Chloro-phenyl)-1-methyl-ethyl]-6,6,9-trimethyl-6a,7,10,10a-tetrahydro-6H-benzo[c]chromen-1-ol] the Ki [1, 11] was 18.8 nM and the Ki [2] was 1.68 nM.

With `CC1=CCC2C(C1)c1c(O)cc(C(C)(C)c3ccc(F)cc3)cc1OC2(C)C` (centres unmarked) [Compound 54, 3-[1-(4-Fluoro-phenyl)-1-methyl-ethyl]-6,6,9-trimethyl-6a,7,10,10a-tetrahydro-6H-benzo[c]chromen-1-ol] the “Ratio CB1/CB2” value [1] was 0.79, the Ki [1, 11] was 2.8 nM and the Ki [2] was 3.54 nM. For the same compound, the “CB2 Ki” value [2, 12] was “did show enhanced affinity for the CB-2 receptor”.

With `CC1=CCC2C(C1)c1c(O)cc(C(C)(C)c3cccs3)cc1OC2(C)C` (centres unmarked) [Compound 55, 6,6,9-Trimethyl-3-(1-methyl-1-thiophen-2-yl-ethyl)-6a,7,10,10a-tetrahydro-6H-benzo[c]chromen-1-ol] the Ki [1] was 1.08 nM, the “Ratio CB1/CB2” value [1] was 4.00 and the Ki [2] was 0.27 nM. For the same compound, the “CB2 Ki” value [2, 12] was “sub-nanomolar”.

In the case of `CCCCCCC(C)(C)c1cc(O)c2c(c1)OC(C)(C)C1CC=C(C)CC21` (centres unmarked) [DMHT, 1′,1′-dimethylheptyl-Δ^8-THC], the Ki [4] is listed as 0.77 nM.

In the case of `CCCCCCC1(c2cc(O)c3c(c2)OC(C)(C)C2CC=C(C)CC32)SCCS1` (centres unmarked) [DTHT, 1′,1′-dithiolaneheptyl-Δ^8-THC], the Ki [4] is listed as 0.32 nM.

With “gem-dimethyl-phenyl-Δ^8-THC [Compound 33]” the “Ratio CB1/CB2” value [1] was 13.5, the Ki ([1]; read-out: CB1 Ki) was 12.3 nM and the “fold selectivity for the CB2 receptor” value ([2]; CB2 over CB1) was 13 fold. For the same compound, the Ki [2, 10] was 0.91 nM, the Ki ([2]; Table 8, SEM in parentheses, n≧2 in triplicate, read-out: CB2 Ki) was 0.91 nM and the “time to complete cell death” value [5] was no more than 5 h.
